SMILES strings stand for the structures.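 All cell lines were grown in 96-well plates and treated with compound for 48 hours. The concentration for full growth arrest is given as TGI.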

Data on 19 molecules can be found in PubChem BioAssay (NCI).

Common to all, as to assay: growth of human tumour cells (NCI), 48 h
Test [1] relates to DU-145 prostate.
Test [2] deals with HCT-116 colon.
Test [3] deals with HT29 colon.
The subject of test [4] is OVCAR-4 ovarian.
In test [5] the test system is PC-3 prostate.
Test [6] concerns SK-MEL-5 melanoma.
Test [7] has as its system SN12C renal.
Test [8] concerns SNB-19 CNS.
Test [9] concerns SW-620 colon.
Test [10] concerns UACC-62 melanoma.
Test [11] concerns COLO 205 colon.
Test [12] concerns UO-31 renal.
Test [13] deals with SK-MEL-2 melanoma.

On to `N#Cc1cccc(Nc2ccccc2SSc2ccccc2Nc2cccc(C#N)c2)c1`, for which the TGI in test [1] was more than 21.5 µM; in test [2], 16.5 µM; in [3] it was 15.3 µM; in test [4], more than 21.5 µM; in [5], 13.9 µM; in [6], 17 µM. The TGI was more than 21.5 µM in test [7], 19.5 µM in [8], 9.19 µM in [9] and more than 21.5 µM in test [10].

As for `Cc1nc(C)c(N2CCN(C(=O)NC(CCC(=O)O)C(=O)O)CC2)c(=O)[nH]1` (configuration not stated), the TGI in test [11], in test [1], in [2], in test [3], in test [4] and in [5] was more than 100 µM in each case. The TGI in test [7], in test [8], in [9], in [10] and in [12] was more than 100 µM throughout.

On to `COc1cccc2c1C(=O)c1c(O)c3c(c(O)c1C2=O)CC(O)(C(C)=O)CC3OC1CC([N+](C)(C)C)C(O)C(C)O1` (configuration not stated), for which the TGI in test [11], in test [2], in [3], in test [4], in [13] and in test [6] was more than 100 µM each time. In addition, the TGI in test [7], in test [8], in [9], in test [10] and in test [12] was more than 100 µM each time.

For `CCOC(=O)/C(=C\NC[C@@H](C)O)c1nc2ccccc2[nH]1`, the TGI in test [11], in [1], in test [2], in test [3], in test [4] and in test [6] was more than 100 µM throughout. Besides, the TGI in [7] is more than 100 µM; in [8], more than 100 µM; in test [9], more than 100 µM; in test [10] it was more than 100 µM; in [12], 4.02 µM.

For `O=C(/C=C/c1ccsc1)c1cccs1`, the TGI in [11] is 94.2 µM; in test [1], more than 100 µM; in [2], 31.1 µM; in test [3], more than 100 µM; in test [4], more than 100 µM; in test [5], more than 100 µM. The TGI is 36.3 µM in test [6]; 41.9 µM in test [7]; more than 100 µM in test [8]; 32.3 µM in [9]; 88.5 µM in test [10]; 34.3 µM in [12].

With `Cc1ccc(/C(O)=C/c2nc3ccccc3nc2NC23CC4CC(CC(C4)C2)C3)cc1`, the TGI in [11], in [1], in test [2], in test [3], in test [4] and in test [5] was more than 10 µM each time. The TGI in test [6], in test [7], in [8], in test [9] and in [10] was more than 10 µM each time.

For the molecule `C(=C\c1ccccc1)/Cn1nc(-c2ccccc2)nc1-c1cnccn1`, the TGI in test [11], in [1], in [2], in [3], in test [4] and in test [5] was more than 100 µM in each case. Further, the TGI in test [6], in test [7], in [8], in test [9], in test [10] and in test [12] was more than 100 µM in each case.

As to `CC[N+](C)(C)c1ccc(C(=C2C=CC(=[N+](C)C)C=C2)c2ccc(N(C)C)cc2)cc1`, the TGI was more than 100 µM in [11]; 19.5 µM in test [2]; 30.6 µM in [3]; 38.3 µM in [4]; 56.8 µM in test [13]; 26.9 µM in [6]. Besides, the TGI in test [7] is more than 100 µM; in [9], 52.1 µM; in test [10], 29.7 µM; in [12], 70.1 µM.

Consider `CC1CC/C(=C\c2ccc(Cl)cc2)C(=O)/C1=C\c1ccc(Cl)cc1` (configuration not stated), for which the TGI is 73 µM in test [11]; more than 100 µM in test [1]; more than 100 µM in test [2]; more than 100 µM in test [3]; more than 100 µM in [5]; 37.9 µM in test [13]. Also, the TGI in [6] is 40.1 µM; in test [7], 95.5 µM; in test [9] it was more than 100 µM; in [10] it was 57.3 µM; in [12] it was more than 100 µM.

Consider `CC(C)/C(Cl)=N/OC(NC(=O)Nc1ccc(Cl)c(Cl)c1)(C(F)(F)F)C(F)(F)F`, for which the TGI amounted to 9.27 µM in test [11]; 31.9 µM in test [1]; 19.7 µM in [2]; 53.7 µM in test [3]; 25.8 µM in test [4]; 27.3 µM in test [5]. The TGI in test [6] came to 29.3 µM; in test [7], 33.9 µM; in test [8], 41 µM; in test [9], 3.92 µM; in test [10] it was 37.2 µM; in test [12] it was 31.3 µM.

Regarding `COC(=O)CC(SCCO)SCCO`, the TGI in [11], in [1], in test [2], in test [3], in test [4] and in [5] was more than 100 µM each time. For the same molecule, the TGI in test [6], in test [7], in test [8], in test [9], in test [10] and in test [12] was more than 100 µM each time.

Regarding `Nc1nc([O-])c([I+]c2ccccc2)c(=O)[nH]1`, the TGI in test [11], in test [1], in [2], in [3], in test [4] and in test [5] was more than 100 µM throughout. In addition, the TGI in test [6], in test [7], in [8], in test [9] and in [12] was more than 100 µM throughout.

`O=c1ccc(-c2ccc(-n3ccnc3)cc2)nn1CCO`: the TGI in [11], in [1], in test [2], in [3], in test [4] and in [5] was more than 100 µM each time. Also, the TGI in test [6], in [7], in test [8], in [9], in test [10] and in test [12] was more than 100 µM each time.

With `CN1NC2=NCCN=C3NN(C)C(=NCCN=C1S2)S3`, the TGI in test [11], in test [2], in [3], in test [4], in test [6] and in test [7] was more than 100 µM in each case. Further, the TGI in test [8], in test [9] and in test [10] was more than 100 µM throughout.

Take `CCOC(=O)Nn1cnnc1Cc1ccccc1`: the TGI in test [11], in test [2], in test [3], in test [4], in [5] and in test [13] was more than 100 µM each time. For the same molecule, the TGI in [6], in test [7], in test [8], in test [9], in test [10] and in [12] was more than 100 µM in each case.

As to `c1ccc2nc3c(nc2c1)sc1nc2ccccc2n13`, the TGI in test [11], in [1], in test [2], in test [3], in test [5] and in [6] was more than 100 µM throughout. Moreover, the TGI in test [7], in [8], in test [10] and in [12] was more than 100 µM throughout.

As for `CC12CC(=O)OC(Cc3ccccc31)O2` (configuration not stated), the TGI in test [11], in test [2], in test [3], in [13], in test [7] and in test [8] was more than 100 µM each time. Moreover, the TGI in test [9], in [10] and in test [12] was more than 100 µM in each case.

For `COc1ccc(-c2c(C#N)c(N)n(C3OCC(O)C(O)C3O)c(=S)c2C#N)cc1` (configuration not stated), the TGI in test [1], in test [3], in test [5], in test [13], in [6] and in test [7] was more than 100 µM in each case. Further, the TGI in test [8], in [9], in test [10] and in test [12] was more than 100 µM throughout.

In the case of `CC1=CC(=C(c2ccc(N)c(C)c2)c2ccc(N)c(C)c2)C=CC1=N`, the TGI in test [11] stood at 5.87 µM; in test [2], 13.3 µM; in [3] it was 15.6 µM; in test [4] it was 52.8 µM; in [13], 7.48 µM; in test [6], 5.75 µM. Moreover, the TGI amounted to 4.31 µM in [7]; 15.8 µM in [8]; 17.7 µM in test [9]; 10.2 µM in [10]; 84.9 µM in test [12].
